Common to all, as to type: toxicity, cell-based
The subject of data set [1] is U2OS. Description: Incucyte cell viability with U2OS. The settings on record: human, 10 µM, compound concentration 10 uM.
Data set [2] relates to HEK-293T. Description: Incucyte cell viability with HEK293T. The settings on record: human, 10 µM, compound concentration 10 uM.
For data set [3], the system named is Fibroblast. The data set can be described thus: Incucyte cell viability with human fibroblast. The settings on record: 10 µM, compound concentration 10 uM.

Structures are written as SMILES.
Note: unitless GR value; below 1 slowed growth and below 0 cell loss.

Regarding `O=C(NS(=O)(=O)N1CCC1)c1cc(C2CC2)c(OCC23CC4CC(CC(C4)C2)C3)cc1F`, the “Growth Rate” value in data set [1] (0 h, replicate number 1) was -0.5; in data set [1] (0 h, replicate number 2), -0.98; in data set [1] (6 h, replicate number 1), 0.59; in data set [1] (6 h, replicate number 2), 0.7; in data set [1] (12 h, replicate number 2), 0.73; in data set [1] (18 h, replicate number 2), 0.8. Also, the “Growth Rate” value in data set [1] (24 h, replicate number 2) is 0.87; in data set [2] (0 h, replicate number 1), 0.85; in data set [2] (0 h, replicate number 2) it was 0.39; in data set [2] (6 h, replicate number 1), 0.69; in data set [2] (6 h, replicate number 2), 0.7; in data set [2] (12 h, replicate number 1) it was 0.88. Besides, the “Growth Rate” value turned out to be 0.87 in data set [2] (18 h, replicate number 1); 0.99 in data set [2] (18 h, replicate number 2); 0.8 in data set [2] (24 h, replicate number 1); 0.92 in data set [2] (24 h, replicate number 2); 0.19 in data set [3] (0 h, replicate number 1); 0.24 in data set [3] (6 h, replicate number 1). Besides, the “Growth Rate” value was -1 in data set [3] (6 h, replicate number 2); -0.01 in data set [3] (12 h, replicate number 2); 0.03 in data set [3] (18 h, replicate number 1); 0.31 in data set [3] (18 h, replicate number 2); 0.81 in data set [3] (24 h, replicate number 1); 0.37 in data set [3] (24 h, replicate number 2).
With `CC[C@H](Nc1c(C#N)c(-c2ccc(-c3cccc(C)c3F)cc2)nc2cnccc12)C(=O)O` [BAY-0361], the “Growth Rate” value was determined as 0.1 in data set [1] (6 h, replicate number 1); 0.56 in data set [1] (12 h, replicate number 1); 0.74 in data set [1] (18 h, replicate number 1); 0.91 in data set [1] (24 h, replicate number 1); 0.79 in data set [2] (0 h, replicate number 2); 0.67 in data set [2] (6 h, replicate number 1). For the same compound, the “Growth Rate” value in data set [2] (6 h, replicate number 2) came to 0.74; in data set [2] (12 h, replicate number 1), 0.79; in data set [2] (12 h, replicate number 2), 0.98; in data set [2] (18 h, replicate number 1), 0.91; in data set [2] (18 h, replicate number 2) it was 0.94; in data set [2] (24 h, replicate number 1), 0.92. In addition, the “Growth Rate” value was 0.98 in data set [2] (24 h, replicate number 2); 0.67 in data set [3] (6 h, replicate number 1); 0.85 in data set [3] (6 h, replicate number 2); 0.65 in data set [3] (12 h, replicate number 1); 0.93 in data set [3] (12 h, replicate number 2); 0.75 in data set [3] (18 h, replicate number 1). The “Growth Rate” value in data set [3] (24 h, replicate number 1) was 0.8; in data set [3] (24 h, replicate number 2), 0.84.
`N#CN1CC[C@@H](C(=O)Nc2nc3c(s2)CN(C(=O)CN=[N+]=[N-])CC3)C1` [JYQ88]: the “Growth Rate” value is -1 in data set [1] (0 h, replicate number 1); 0.95 in data set [1] (12 h, replicate number 1); 0.97 in data set [2] (0 h, replicate number 1); 0.69 in data set [2] (6 h, replicate number 1); 0.71 in data set [2] (6 h, replicate number 2); 0.77 in data set [2] (12 h, replicate number 1). Also, the “Growth Rate” value in data set [2] (12 h, replicate number 2) was 0.7; in data set [2] (18 h, replicate number 1), 1; in data set [2] (18 h, replicate number 2), 0.77; in data set [2] (24 h, replicate number 1) it was 0.96; in data set [2] (24 h, replicate number 2) it was 0.85; in data set [3] (0 h, replicate number 1), -1. Also, the “Growth Rate” value in data set [3] (6 h, replicate number 2) was 0.78; in data set [3] (12 h, replicate number 1), 0.78; in data set [3] (12 h, replicate number 2) it was 0.49; in data set [3] (18 h, replicate number 2) it was 0.75; in data set [3] (24 h, replicate number 1), 1; in data set [3] (24 h, replicate number 2), 0.77.
In the case of `CC(=O)O.Cc1cc2c(ncn2C2(C)CN(C(=O)c3ccn(CC4CCN([C@H]5C=CCCCC5)CC4)c3)C2)c(N)n1`, the “Growth Rate” value in data set [1] (0 h, replicate number 1) was 0.51; in data set [1] (6 h, replicate number 1), 0.96; in data set [1] (24 h, replicate number 1), 0.75; in data set [2] (0 h, replicate number 1), -0.66; in data set [3] (0 h, replicate number 2), 0.45; in data set [3] (6 h, replicate number 2), 0.25. The “Growth Rate” value worked out at 0.9 in data set [3] (12 h, replicate number 1); 0.83 in data set [3] (12 h, replicate number 2); 0.86 in data set [3] (18 h, replicate number 1); 0.98 in data set [3] (18 h, replicate number 2).
Consider `COc1cc(C(=O)NC2CCN(C)CC2)ccc1Nc1ncc2c(n1)N(C1CCCC1)CC(F)(F)C(=O)N2C`, for which the “Growth Rate” value in data set [1] (0 h, replicate number 1) is recorded as -0.99; in data set [1] (0 h, replicate number 2) it was 0.71; in data set [1] (6 h, replicate number 1), 0.46; in data set [1] (6 h, replicate number 2), 0.18; in data set [1] (12 h, replicate number 1), 0.23; in data set [1] (12 h, replicate number 2), -0.13. Moreover, the “Growth Rate” value was 0.12 in data set [1] (18 h, replicate number 1); -0.08 in data set [1] (18 h, replicate number 2); 0.2 in data set [1] (24 h, replicate number 1); -0.03 in data set [1] (24 h, replicate number 2); 0.85 in data set [2] (6 h, replicate number 1); -0.29 in data set [2] (6 h, replicate number 2). Moreover, the “Growth Rate” value is 0.86 in data set [2] (12 h, replicate number 1); -0.06 in data set [2] (12 h, replicate number 2); 0.53 in data set [2] (18 h, replicate number 1); -0.2 in data set [2] (18 h, replicate number 2); 0.26 in data set [2] (24 h, replicate number 1); -0.23 in data set [2] (24 h, replicate number 2). The “Growth Rate” value turned out to be 0.51 in data set [3] (12 h, replicate number 1); 0.72 in data set [3] (12 h, replicate number 2); 0.36 in data set [3] (18 h, replicate number 1); 0.45 in data set [3] (18 h, replicate number 2); 0.28 in data set [3] (24 h, replicate number 1); 0.42 in data set [3] (24 h, replicate number 2).
`O=C(O)CCC/C=C\C[C@@H]1[C@@H](/C=C/[C@@H](O)COc2cccc(C(F)(F)F)c2)[C@H](O)C[C@@H]1O` [FLUPROSTENOL]: the “Growth Rate” value was found to be 0.61 in data set [1] (0 h, replicate number 1); 0.86 in data set [1] (6 h, replicate number 1); 0.95 in data set [1] (6 h, replicate number 2); 0.91 in data set [1] (12 h, replicate number 2); 0.9 in data set [1] (18 h, replicate number 2); 0.91 in data set [1] (24 h, replicate number 2). The “Growth Rate” value is listed as -0.11 in data set [2] (0 h, replicate number 1); 0.68 in data set [2] (0 h, replicate number 2); 0.15 in data set [3] (6 h, replicate number 1); -0.58 in data set [3] (6 h, replicate number 2); 0.5 in data set [3] (12 h, replicate number 1); 0.09 in data set [3] (12 h, replicate number 2). Moreover, the “Growth Rate” value in data set [3] (18 h, replicate number 1) was 0.89; in data set [3] (18 h, replicate number 2) it was 0.18; in data set [3] (24 h, replicate number 1), 0.8; in data set [3] (24 h, replicate number 2), 0.44.
`C[C@@H](Cn1c(=O)[nH]/c(=N\c2ccc(Oc3ccccn3)cc2)n(Cc2ccc(Cl)cc2)c1=O)C(=O)O`: the “Growth Rate” value in data set [1] (0 h, replicate number 2) was -0.83; in data set [1] (6 h, replicate number 2) it was 0.93; in data set [1] (12 h, replicate number 1), 0.97; in data set [1] (18 h, replicate number 1), 0.99; in data set [2] (6 h, replicate number 1) it was 0.2; in data set [2] (6 h, replicate number 2), 0.62. Also, the “Growth Rate” value was 0.97 in data set [2] (18 h, replicate number 1); -0.1 in data set [3] (6 h, replicate number 1); -1 in data set [3] (6 h, replicate number 2); 0.04 in data set [3] (12 h, replicate number 2); 0.75 in data set [3] (18 h, replicate number 2); 0.85 in data set [3] (24 h, replicate number 2).
As to `CC(C)(C)c1cnc(CSc2cnc(NC(=O)C3CCNCC3)s2)o1` [BMS-387032], the “Growth Rate” value was -1 in data set [1] (0 h, replicate number 1); 0.54 in data set [1] (0 h, replicate number 2); 0.69 in data set [1] (6 h, replicate number 1); 0.29 in data set [1] (6 h, replicate number 2); 0.45 in data set [1] (12 h, replicate number 1); 0.05 in data set [1] (12 h, replicate number 2). Moreover, the “Growth Rate” value in data set [1] (18 h, replicate number 1) is 0.27; in data set [1] (18 h, replicate number 2) it was 0.04; in data set [1] (24 h, replicate number 1), 0.05; in data set [1] (24 h, replicate number 2), -0.1; in data set [2] (6 h, replicate number 1), -0.41; in data set [2] (6 h, replicate number 2) it was -0.76. The “Growth Rate” value was -0.29 in data set [2] (12 h, replicate number 1); -0.64 in data set [2] (12 h, replicate number 2); -0.21 in data set [2] (18 h, replicate number 1); -0.48 in data set [2] (18 h, replicate number 2); -0.2 in data set [2] (24 h, replicate number 1); -0.37 in data set [2] (24 h, replicate number 2). Further, the “Growth Rate” value in data set [3] (0 h, replicate number 1) is -1; in data set [3] (0 h, replicate number 2), -0.8; in data set [3] (6 h, replicate number 1), 0.49; in data set [3] (6 h, replicate number 2), -0.1; in data set [3] (12 h, replicate number 1), 0.11; in data set [3] (12 h, replicate number 2) it was -0.28. Also, the “Growth Rate” value in data set [3] (18 h, replicate number 1) is given as 0.32; in data set [3] (18 h, replicate number 2) it was -0.23; in data set [3] (24 h, replicate number 1), 0.23; in data set [3] (24 h, replicate number 2), -0.26.
Consider `Cn1c(=O)n(CCCO)c(=O)c2c1nc(Oc1cccc(Cl)c1)n2Cc1ccc(Cl)cc1`, for which the “Growth Rate” value came to 0.38 in data set [1] (6 h, replicate number 1); 0.93 in data set [1] (12 h, replicate number 2); 0.86 in data set [1] (18 h, replicate number 1); 0.82 in data set [1] (18 h, replicate number 2); 0.94 in data set [1] (24 h, replicate number 1); 0.89 in data set [1] (24 h, replicate number 2). Also, the “Growth Rate” value in data set [2] (0 h, replicate number 2) is on record as 0.3; in data set [2] (6 h, replicate number 2), 0.26; in data set [2] (12 h, replicate number 2), 0.77; in data set [2] (18 h, replicate number 2), 0.84; in data set [2] (24 h, replicate number 2) it was 0.83; in data set [3] (6 h, replicate number 2) it was -0.99. The “Growth Rate” value in data set [3] (12 h, replicate number 2) is reported as 0.66; in data set [3] (18 h, replicate number 1) it was 0.33; in data set [3] (24 h, replicate number 2), 0.85.
For `Cc1[nH]c2c(N3CCCCC3)c(-c3ccccc3)nn2c(=O)c1-c1ccc(O)cc1`, the “Growth Rate” value in data set [1] (0 h, replicate number 1) is -0.56; in data set [1] (6 h, replicate number 1), 0.77; in data set [1] (6 h, replicate number 2), 0.87; in data set [1] (12 h, replicate number 1), 0.9; in data set [1] (12 h, replicate number 2), 0.92; in data set [1] (18 h, replicate number 1), 0.85. For the same compound, the “Growth Rate” value in data set [1] (18 h, replicate number 2) is 0.93; in data set [1] (24 h, replicate number 1), 0.78; in data set [1] (24 h, replicate number 2), 0.82; in data set [2] (0 h, replicate number 1) it was -0.59; in data set [2] (6 h, replicate number 1) it was 0.95; in data set [2] (6 h, replicate number 2) it was 0.55. Besides, the “Growth Rate” value in data set [2] (12 h, replicate number 2) is on record as 0.88; in data set [3] (0 h, replicate number 1), -0.08; in data set [3] (6 h, replicate number 2) it was 0.19; in data set [3] (12 h, replicate number 2), 0.39; in data set [3] (18 h, replicate number 1) it was 0.73; in data set [3] (18 h, replicate number 2), 0.35. Moreover, the “Growth Rate” value was 0.64 in data set [3] (24 h, replicate number 1) and 0.24 in data set [3] (24 h, replicate number 2).

Values taken from ChEMBL document CHEMBL5303304, “EUbOPEN Chemogenomics Library - IncuCyte” (2023).
